Experimental data from patent US20230322785A1, “ADENOSINE A2A AND A2B RECEPTOR DUAL ANTAGONISTS FOR IMMUNO-ONCOLOGY” (Merck Sharp & Dohme LLC, priority 2020, published 2023).

How the values were obtained:
[1] = biological target: T1, human A2B adenosine receptor (Homo sapiens, UniProt P29275); experiment: A2B binding affinity, radioligand filtration binding assay; details: membranes of HEK293 cells expressing human A2B
T1 construct: purchased Perkin Elmer ES-013-C; host or cells: HEK293 cells
T1 sequence (P29275 1-332): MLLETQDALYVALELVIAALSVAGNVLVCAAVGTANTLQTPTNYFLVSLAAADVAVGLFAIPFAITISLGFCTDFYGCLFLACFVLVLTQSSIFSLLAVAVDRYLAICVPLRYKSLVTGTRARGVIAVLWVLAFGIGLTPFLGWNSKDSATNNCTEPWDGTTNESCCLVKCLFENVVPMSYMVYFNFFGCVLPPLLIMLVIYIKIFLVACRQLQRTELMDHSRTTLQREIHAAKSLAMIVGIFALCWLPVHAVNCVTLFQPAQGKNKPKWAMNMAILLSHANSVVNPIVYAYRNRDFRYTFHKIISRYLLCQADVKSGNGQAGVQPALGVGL
Source text: (§1) Method (A) describes the procedure used to measure A2A binding affinity using radioligand binding. Method (B) describes the procedure used to measure A2A binding affinity using SPA technology. The method used to measure A2B binding affinity is also described below. The method used to determine the A2A IC50 value reported for each compound in the table is indicated next to the reported value. The A2B IC50 value measured using the A2B binding affinity assay is shown in the table next to the compound under the corresponding A2A value.
Measurement of A2B Binding Affinity
The reported affinity of the compounds of the invention for the human A2B adenosine receptor was determined experimentally using a radioligand filtration binding assay. This assay measures the amount of binding of a tritiated proprietary A2B receptor antagonist, in the presence and absence of a compound of the invention, to membranes made from HEK293 cells recombinantly expressing the human A2B adenosine receptor (Perkin Elmer, Cat. No. ES-013-C). […] 148 µL (135 µg/mL) membranes and 2 µL test compounds were transferred to individual wells of a 96-well polypropylene assay plate and incubated for 15 to 30 min at room temperature with agitation. Tritiated radioligand was diluted to a concentration of 14 nM in assay buffer (phosphate buffered saline without Magnesium and Calcium, pH 7.4; GE Healthcare Life Sciences, Cat. No. SH30256.01) and then 50 µL of the solution were transferred to each well of the assay plate. To define total and non-specific binding, wells containing 1% DMSO and 20 µM N-ethylcarboxamidoadenosine (Tocris Bioscience, Cat. No. 1691) respectively, were also included. The wells of the assay plate were incubated at room temperature for 60 min with agitation, then filtered using a FilterMate Harvester® (Perkin Elmer) or similar equipment through a UniFilter-96® PEI coated plate (Perkin Elmer Cat. No. 6005274 or 6005277). Filtering was achieved by aspirating the contents of the assay plate for 5 sec, then washing and aspirating the contents three times with ice-cooled wash buffer (assay buffer supplemented with 0.0025% Brij58) and allowing the vacuum manifold to dry the plate for 30 sec. The filter plate was incubated for at least 1 h at 55° C. and allowed to dry. The bottom of the filter plate was then sealed with backing tape. 40 µL Ultima Gold™ (Perkin Elmer, Cat. No. 6013329) was added to each well of the filter plate and the top of the plate was sealed with TopSeal-A PLUS® clear plate seal (Perkin Elmer, Cat. No. 6050185). The plates were then incubated for at least 20 min, and then the amount of radioactivity remaining in each well was determined using a TopCount® (Perkin Elmer) scintillation counter. After normalization to total and non-specific binding, the percent effect at each compound concentration was calculated. The plot of percent effect versus the log of compound concentration was analyzed electronically using a 4-parameter logistic fit based on the Levenberg-Marquardt algorithm to generate IC50 values.

[2] = biological target: T2, human A2A adenosine receptor (Homo sapiens, UniProt P29274); experiment: A2A binding affinity, Method (A): radioligand filtration binding with [3H]SCH58261; details: membranes of HEK293 or CHO cells expressing the human receptor
T2 construct: expressed in transfected cells; host or cells: HEK293 or CHO cells
Source text: as §1
The A2A receptor affinity binding assay measured the amount of binding of a tritiated ligand with high affinity for the A2A adenosine receptor to membranes made from HEK293 or CHO cells recombinantly expressing the human A2A adenosine receptor, in the presence of varying concentrations of a compound of the invention. The data were generated using either filtration binding or a homogenous scintillation proximity assay (SPA).
Method (A): Measurement of A2A Binding Affinity Using Radioligand Binding
148 µL (5 µg/mL) membranes (Perkin Elmer, Cat. No. RBHA2aM400UA) and 2 µL compounds of the invention to be tested (test compound) were transferred to individual wells of a 96-well polypropylene assay plate and incubated for 15 to 30 min at room temperature. [^3H] SCH58261 ((7-(2-phenylethyl)-5-amino-2-(2-furyl)-pyrazolo-[4,3-e]-1,2,4-triazolo[1,5-c]pyrimidine)) was diluted in assay buffer (50 mM Tris pH 7.4, 10 mM MgCl2, 0.005% Tween20) to a concentration of 4 nM and 50 µL transferred to each well of the assay plate. To define total and non-specific binding, wells containing 1% DMSO and 1 µM ZM241385 (Tocris Bioscience, Cat. No. 1036) respectively, were also included. The assay plate was incubated at room temperature for 60 min with agitation. Using a FilterMate Harvester® (Perkin Elmer), the contents of the assay plate were filtered through a UniFilter-96® PEI coated plate (Perkin Elmer Cat. No. 6005274 or 6005277). Filtering was achieved by aspirating the contents of the assay plate for 5 sec, then washing and aspirating the contents three times with ice-cooled wash buffer (50 mM Tris-HCl pH 7.4, 150 mM NaCl) and allowing the vacuum manifold to dry the plate for 30 sec. The filter plate was incubated for at least 1 h at 55° C. and allowed to dry. The bottom of the filter plate was sealed with backing tape. 40 µL Ultima Gold™ (Perkin Elmer, Cat. No. 6013329) was added to each well of the filter plate and the top of the plate was sealed with TopSeal-A PLUS® clear plate seal (Perkin Elmer, Cat. No. 6050185). The plate was incubated for at least 20 min, and then the amount of radioactivity remaining in each well was determined using a TopCount® (Perkin Elmer) scintillation counter. After normalization to total and non-specific binding, the percent effect at each compound concentration was calculated. The plot of percent effect versus the log of compound concentration was analyzed electronically using a 4-parameter logistic fit based on the Levenberg-Marquardt algorithm to generate IC50 values.

T2 sequence (P29274 whole entry): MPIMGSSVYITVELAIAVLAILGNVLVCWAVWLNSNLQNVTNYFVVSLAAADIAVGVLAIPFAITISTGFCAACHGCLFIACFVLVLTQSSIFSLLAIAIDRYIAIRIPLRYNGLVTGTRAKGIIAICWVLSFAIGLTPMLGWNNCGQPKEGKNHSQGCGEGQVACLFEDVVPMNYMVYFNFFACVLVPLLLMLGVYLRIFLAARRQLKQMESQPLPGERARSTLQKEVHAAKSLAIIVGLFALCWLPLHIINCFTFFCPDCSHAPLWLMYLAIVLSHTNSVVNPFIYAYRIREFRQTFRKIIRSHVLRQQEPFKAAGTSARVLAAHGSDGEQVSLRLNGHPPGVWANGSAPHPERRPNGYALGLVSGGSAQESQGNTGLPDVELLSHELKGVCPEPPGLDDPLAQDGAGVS

SMILES | IC50 ([1]; value given with mark (A)) | IC50 [2] | IC50 ([1]; value printed with mark (B))
COc1cc(F)cc2c1nc(N)n1nc(CNCc3ccc(C(O)C(F)(F)F)cc3)nc21 (single isomer, unassigned) [Example 11.7A, (S or R)-1-(4-((((5-amino-9-fluoro-7-methoxy-[1,2,4]triazolo[1,5-c]quinazolin-2-yl)methyl)amino)methyl)phenyl)-2,2,2-trifluoroethan-1-ol] | 21.2 nM | 0.5 nM | –
COc1cc(F)cc2c1nc(N)n1nc(CNCc3ccc(C(C)(C)O)cc3)nc21 [Example 11.4, 2-(4-((((5-amino-9-fluoro-7-methoxy-[1,2,4]triazolo[1,5-c]quinazolin-2-yl)methyl)amino)methyl)phenyl)propan-2-ol] | – | 0.1 nM | 2.9 nM
COc1cc(F)cc2c1nc(N)n1nc(CNCc3ccc(C(O)C(F)(F)F)cc3)nc21 (single isomer, unassigned) [Example 11.7B, (R or S)-1-(4-((((5-amino-9-fluoro-7-methoxy-[1,2,4]triazolo[1,5-c]quinazolin-2-yl)methyl)amino)methyl)phenyl)-2,2,2-trifluoroethan-1-ol] | 14.7 nM | 0.5 nM | –
COc1cccc2c1nc(N)n1nc(CNCc3cnn(C)c3)nc21 [Example 11.3, 7-methoxy-2-((((1-methyl-1H-pyrazol-4-yl)methyl)amino)methyl)-[1,2,4]triazolo[1,5-c]quinazolin-5-amine] | – | 0.1 nM | 1040 nM
COc1cc(F)cc2c1nc(N)n1nc(CNCc3ccc(C(O)(C(F)F)C(F)F)cc3)nc21 [Example 11.6, 2-(4-((((5-amino-9-fluoro-7-methoxy-[1,2,4]triazolo[1,5-c]quinazolin-2-yl)methyl)amino)methyl)phenyl)-1,1,3,3-tetrafluoropropan-2-ol] | 3.7 nM | 0.3 nM | –
COc1cccc2c1nc(N)n1nc(CNS(=O)(=O)C3CC3)nc21 [Example 12.2, N-((5-amino-7-methoxy-[1,2,4]triazolo[1,5-c]quinazolin-2-yl)methyl)cyclopropanesulfonamide] | 116 nM | 0.6 nM | –
COc1cccc2c1nc(N)n1nc(CNC(=O)c3ccc(S(N)(=O)=O)cc3)nc21 [Example 4.10, N-((5-amino-7-methoxy-[1,2,4]triazolo[1,5-c]quinazolin-2-y1)methyl)-4-sulfamoylbenzamide] | – | 636 nM | –
COc1cc2nc(N)n3nc(CCNc4cnn(CC(C)(C)O)c4)nc3c2cc1F [Example 24.2, 1-(4-((2-(5-amino-9-fluoro-8-methoxy-[1,2,4]triazolo[1,5-c]quinazolin-2-yl)ethyl)amino)-1H-pyrazol-1-yl)-2-methylpropan-2-ol] | – | 26.5 nM | –
COc1cc(F)cc2c1nc(N)n1nc(CNC(c3ccc(C(C)(C)O)cc3)C(F)(F)F)nc21 (single isomer, unassigned) [Example 25.3B, (R or S)-2-(4-(1-(((5-amino-9-fluoro-7-methoxy-[1,2,4]triazolo[1,5-c]quinazolin-2-yl)methyl)amino)-2,2,2-trifluoroethyl)phenyl)propan-2-ol] | – | 29.2 nM | –
COc1cc(F)cc2c1nc(N)n1nc(CNC(c3ccc(C(C)(C)O)cc3)C(F)(F)F)nc21 (single isomer, unassigned) [Example 25.3A, (S or R)-2-(4-(1-(((5-amino-9-fluoro-7-methoxy-[1,2,4]triazolo[1,5-c]quinazolin-2-yl)methyl)amino)-2,2,2-trifluoroethyl)phenyl)propan-2-ol] | – | 19.3 nM | –
COc1cc(F)cc2c1nc(N)n1nc(CNCc3ccc(S(N)(=O)=O)cc3)nc21 [Example 11.11, 4-((((5-amino-9-fluoro-7-methoxy-[1,2,4]triazolo[1,5-c]quinazolin-2-yl)methyl)amino)methyl)benzenesulfonamide] | 15.6 nM | 2.1 nM | –
COc1cc(F)cc2c1nc(N)n1nc(CNCc3ccc(C(C)(O)C(F)(F)F)cc3)nc21 (single isomer, unassigned) [Example 11.8B, (R or S)-2-(4-((((5-amino-9-fluoro-7-methoxy-[1,2,4]triazolo[1,5-c]quinazolin-2-yl)methyl)amino)methyl)phenyl)-1,1,1-trifluoropropan-2-ol] | 2.9 nM | 0.4 nM | –
COc1cccc2c1nc(N)n1nc(CN3CC(c4ccncc4)C3)nc21 [Example 11.14, 7-methoxy-2-((3-(pyridin-4-yl)azetidin-1-yl)methyl)-[1,2,4]triazolo[1,5-c]quinazolin-5-amine] | – | 9.1 nM | –
COc1cccc2c1nc(N)n1nc(CN3CCO[C@@H](Cc4ccccc4)C3)nc21 [Example 8.1, (S)-2-((2-benzylmorpholino)methyl)-7-methoxy-[1,2,4]triazolo[1,5-c]quinazolin-5-amine] | – | 6 nM | –
COc1cccc2c1nc(N)n1nc(CN(C)C(=O)c3ccc(C(C)(C)O)cc3)nc21 [Example 1.2, N-((5-amino-7-methoxy-[1,2,4]triazolo[1,5-c]quinazolin-2-yl)methyl)-4-(2-hydroxypropan-2-yl)-N-methylbenzamide] | – | 0.3 nM | –
COc1cc(F)cc2c1nc(N)n1nc(CNC(C)(C)c3ccc(C(C)(C)O)cc3)nc21 [Example 11.9, 2-(4-(2-(((5-amino-9-fluoro-7-methoxy-[1,2,4]triazolo[1,5-c]quinazolin-2-yl)methyl)amino)propan-2-yl)phenyl)propan-2-ol] | – | 1.1 nM | –
COc1cccc2c1nc(N)n1nc(CNC(=O)c3ccc(C(C)(C)O)cc3)nc21 [Example 2.1, N-((5-amino-7-methoxy-[1,2,4]triazolo[1,5-c]quinazolin-2-yl)methyl)-4-(2-hydroxypropan-2-yl)benzamide] | – | 0.6 nM | –
COc1cc(F)cc2c1nc(N)n1nc(CNC(=O)c3c(F)cc(C(C)(C)O)cc3F)nc21 [Example 3.4, N-((5-amino-9-fluoro-7-methoxy-[1,2,4]triazolo[1,5-c]quinazolin-2-yl)methyl)-2,6-difluoro-4-(2-hydroxypropan-2-yl)benzamide] | – | 11.1 nM | –
